The assay has as its system CAF1 mice, leiomyosarcoma No.2 ip, survival T/C%. Nature of the assay: NCI In Vivo Anticancer Drug Screen. Data for tumor model Leiomyosarcoma (No. 2) (intraperitoneal) in CAF1 mice. The note with it: endpoint: mean survival time, higher = longer survival. How it is done:
The antitumor activity of compounds was measured in mice bearing transplantable tumors. Survival or tumor size were measured and the results are expressed as the measurement made in the treated group (T) divided by the measurement made in the vehicle treated control group (C). The tumor model used in this assay is Leiomyosarcoma (No. 2) (intraperitoneal) in CAF1 mice

Setting [1] is: dose: 0.25 mg/kg/injection, schedule: Q01DX010 (ip), vehicle: saline.
Where [2] appears, read: dose: 0.5 mg/kg/injection, schedule: Q01DX010 (ip), vehicle: saline.
Where [3] appears, read: dose: 2.5 mg/kg/injection, schedule: Q01DX010 (ip), vehicle: saline.
[4] abbreviates: dose: 5.0 mg/kg/injection, schedule: Q01DX010 (ip), vehicle: saline.
The mark [5] stands for this setting: dose: 10.0 mg/kg/injection, schedule: Q01DX010 (ip), vehicle: saline.
[6] abbreviates: dose: 8.0 mg/kg/injection, schedule: Q01DX010 (ip), vehicle: saline.
[7] abbreviates: dose: 1.0 mg/kg/injection, schedule: Q01DX010 (ip), vehicle: saline.
Where [8] appears, read: dose: 2.0 mg/kg/injection, schedule: Q01DX010 (ip), vehicle: saline.

The structures appear in SMILES notation. Several values for one entry are separate records, joined by “and”; a condition that tells them apart may be missing. Equal entries are not always repeated. Inconclusive results and toxic doses are left out.

In the case of `C1CN1c1nc(N2CC2)nc(N2CC2)n1`, the T/C (dose: 0.13 mg/kg/injection, schedule: Q01DX010 (ip), vehicle: saline) was 117 % of control; the T/C under setting [1] is 121 % of control; the T/C under setting [2] is 196 % of control and 233 % of control.

On to `NC(Cc1ccc(N(CCCl)CCCl)cc1)C(=O)O` (stereo not drawn), for which the T/C is 191 % of control and 265 % of control under setting [3]; 166 % of control and 207 % of control under setting [4]; 150 % of control and 258 % of control under setting [5]; 192 % of control (dose: 20.0 mg/kg/injection, schedule: Q01DX010 (ip), vehicle: saline).

Regarding `CS(=O)(=O)OCCCl`, the T/C reads like this: (dose: 18.8 mg/kg/injection, schedule: Q01DX010 (ip), vehicle: saline) 100 % of control; (dose: 37.5 mg/kg/injection, schedule: Q01DX010 (ip), vehicle: saline) 111 % of control; (dose: 75.0 mg/kg/injection, schedule: Q01DX010 (ip), vehicle: saline) 116 % of control; (dose: 150.0 mg/kg/injection, schedule: Q01DX010 (ip), vehicle: saline) 220 % of control and 269 % of control.

Regarding `O=C(Nc1ccc(C2=NCCN2)cc1)c1cccc(C(=O)Nc2ccc(C3=NCCN3)cc2)c1`, the T/C runs as follows: under setting [6], 260 % of control and 300 % of control; (dose: 16.0 mg/kg/injection, schedule: Q01DX010 (ip), vehicle: saline) 257 % of control and 260 % of control.

On to `Nc1nc(F)nc2c1ncn2C1OC(CO)C(O)C1O` (stereo not drawn), for which the T/C under setting [2] is 104 % of control; the T/C under setting [7] is 104 % of control and 113 % of control; the T/C under setting [8] was 100 % of control and 109 % of control; the T/C (dose: 4.0 mg/kg/injection, schedule: Q01DX010 (ip), vehicle: saline) was 113 % of control and 118 % of control; the T/C under setting [6] was 86 % of control.

As for `N#[N+]c1cnc([O-])[nH]c1=O`, the T/C under setting [3] was 213 % of control and the T/C under setting [5] is 93 % of control.

As for `CCCCNc1ncnc2c1cnn2C`, the T/C runs as follows: (dose: 15.6 mg/kg/injection, schedule: Q01DX010 (ip), vehicle: saline) 92 % of control; (dose: 31.3 mg/kg/injection, schedule: Q01DX010 (ip), vehicle: saline) 89 % of control and 103 % of control; (dose: 62.5 mg/kg/injection, schedule: Q01DX010 (ip), vehicle: saline) 90 % of control and 112 % of control.

Turning to `CC(=O)O[C@]1(C(C)=O)CC[C@H]2[C@@H]3C[C@H](C)C4=CC(=O)C=C[C@]4(C)[C@@]3(F)[C@@H](O)C[C@@]21C`, the T/C reads like this: (dose: 12.5 mg/kg/injection, schedule: Q01DX010 (sc), vehicle: steriod suspending solution) 96 % of control; (dose: 25.0 mg/kg/injection, schedule: Q01DX010 (sc), vehicle: steriod suspending solution) 104 % of control; (dose: 50.0 mg/kg/injection, schedule: Q01DX010 (sc), vehicle: steriod suspending solution) 88 % of control; (dose: 100.0 mg/kg/injection, schedule: Q01DX010 (sc), vehicle: steriod suspending solution) 88 % of control.

On to `CC(=O)NC1=C(N2CC2)C(=O)C(NC(C)=O)=C(N2CC2)C1=O`, for which the T/C is 163 % of control under setting [1]; 222 % of control under setting [2]; 300 % of control under setting [7]; 100 % of control under setting [8]; 195 % of control (dose: 250.0 micrograms/kg/injection, schedule: Q01DX010 (ip), vehicle: saline); 195 % of control (dose: 500.0 micrograms/kg/injection, schedule: Q01DX010 (ip), vehicle: saline). Moreover, the T/C (dose: 1000.0 micrograms/kg/injection, schedule: Q01DX010 (ip), vehicle: saline) is 300 % of control.

Consider `O=c1[nH]c(=O)n(C2CC(O)C(CO)O2)cc1F` (stereo not drawn), for which the T/C runs as follows: under setting [4], 118 % of control; under setting [5], 118 % of control.

For `CS(=O)(=O)OCCCCOS(C)(=O)=O`, the T/C was 100 % of control (dose: 6.25 mg/kg/injection, schedule: Q01DX010 (ip), vehicle: saline); 96 % of control and 123 % of control (dose: 12.5 mg/kg/injection, schedule: Q01DX010 (ip), vehicle: saline); 103 % of control (dose: 25.0 mg/kg/injection, schedule: Q01DX010 (ip), vehicle: saline); 86 % of control (dose: 50.0 mg/kg/injection, schedule: Q01DX010 (ip), vehicle: saline).

Turning to `O=c1cnn(C2OC(CO)C(O)C2O)c(=O)[nH]1` (stereo not drawn), the T/C is 104 % of control and 107 % of control (dose: 200.0 mg/kg/injection, schedule: Q01DX010 (ip), vehicle: saline); 104 % of control and 107 % of control (dose: 400.0 mg/kg/injection, schedule: Q01DX010 (ip), vehicle: saline); 107 % of control and 112 % of control (dose: 800.0 mg/kg/injection, schedule: Q01DX010 (ip), vehicle: saline).
